Data set [1] concerns NG108-15 cells. The experiment in a line: O-acetylation state of NeuGc in ManNGcPA-treated NG108-15 cells, thin layer chromatography. In kind it is cell-based, mouse neuroblastoma/rat glioma hybrid. Conditions: 1 mM, 48 h. On the procedure: O-Acetylated sialic acids from bovine submaxillary mucin served as standards. […] A portion of the organic/aqueous soluble pool (predominantly free sialic acids) was subjected to silicic acid thin layer chromatography using propanol-water (1:1) as developing solvent and resorcinol reagent for detection. Sialic acids released from bovine submaxillary mucin, which contain primarily O-acetylated forms of NeuAc (as well as NeuAc, NeuGc, and O-acetylated forms of NeuGc) were prepared and used as positive controls. Lane 1, bovine submaxillary mucin sialic acids; Lane 2, mucin sialic acids pretreated with concentrated ammonium hydroxide for 2 h at ambient temperature to selectively deplete O-acetyl groups; Lane 3, NeuAc standard; Lane 4, NeuGc standard; Lane 5, extract from ManNGcPA-treated NG108-15 cells. O-Acetylated forms of NeuGc, which are reported to migrate 60-100% farther than the parent NeuGc in this system, appear to be absent from the cell extract.

Data set [2] relates to MAG-Fc chimera. The experiment in a line: MAG-Fc binding to precursor-treated NG108-15 cells by flow cytometry. It counts as cell-based. On the procedure:
Flow cytometry was used to test binding of a soluble MAG-Fc chimera to precursor-treated and control NG108-15 cells. A chimeric protein consisting of the entire extracellular domain of MAG fused via a three amino acid bridge (TGK) to the human Fc domain was produced using the "pIgPlus" vector (Novagen, Madison, Wis.). A PCR fragment coding for the extracellular domain of MAG was prepared using MAG in pCDM8 as template (Yang et al., 1996a), the T7 5' primer […] (SEQ ID NO:1) and […] (SEQ ID NO:2) as the 3' primer. The fragment was cut with BamHI and HindIII and directionally cloned into the pIgPlus vector. The resulting construct was sequenced to confirm its identity, transfected into COS cells, and the resulting MAG-Fc chimera was purified from the culture medium using Protein G affinity chromatography.
For MAG binding studies, NG108-15 cells were cultured in the presence of sialic acid precursors for the indicated times, then were released from culture dishes using hypertonic Ca^2+ /Mg^2+ -free phosphate-buffered saline (Yang et al., Proc. Natl. Acad. Sci. USA., 93:814, 1996) and resuspended (at […]) in 25 mM Hepes-buffered Hanks balanced salt solution (Bashor, Methods Enzymol., 58:119, 1979) containing 5 mg/ml bovine serum albumin. MAG-Fc (6 μg) was added to 100 μl of the same buffer containing 6 μg fluorescein isothiocyanate-labeled goat anti-human Fc (Jackson Immunoresearch, West Grove, Pa.) and incubated on ice for 1 h 45 min with frequent mixing. Cell suspension (100 μl containing 50,000 cells) was added to the premixed antibody solution and the mixture incubated on ice for 45 min. The cells were then centrifuged for 4 sec at 16,000×g and washed three times by resuspension in 200 μl of buffer with bovine serum albumin and centrifugation. The resulting cell pellet was resuspended in 100 μl buffer with bovine serum albumin and flow cytometry was performed on an Epics Profile II cytometer (Coulter Corp, Hialeah, Fla.).
NG108-15 cells, a mouse neuroblastoma/rat glioma hybrid, display many qualities of cholinergic neurons, including neurite outgrowth, synthesis, storage and release of acetylcholine, and functional synapse formation with muscle cells in vitro. Neurite outgrowth from NG108-15 cells is inhibited by MAG (McKerracher et al., Neuron, 13:805, 1994), an interaction which is reversed by pretreatment of the cells with neuraminidase (Schnaar et al., Ann. N.Y. Acad. Sci., 845:92, 1998). […] Binding was quantified by flow cytometry. […]
(In general: Flow cytometry measures light scatter and fluorescence of single cells or particles in a stream.)

As to `CC(=O)OCC(=O)N[C@@H]1C(OC(C)=O)O[C@H](COC(C)=O)[C@@H](OC(C)=O)[C@@H]1OC(C)=O` (stereo partly shown) [ManNGcPA, N-glycolylmannosamine pentaacetate], in data set [1], the “O-acetylated NeuGc in the precursor pool” value was “no significant proportion of O-acetylated NeuGc” and the “de-O-acetylation prior to or coordinate with metabolism to sialic acid” value is “apparently complete de-O-acetylation”. Further, the “inhibition of MAG-Fc binding” value in data set [2] (0.25 mM or 1 mM, 96 h) was “≈ 70%”. Further, the “inhibition of specific binding of MAG-Fc” value in data set [2] (1 mM, 144 h, compared to control cells) was 95%.
